Reference: patent US20100160556A1, “GLP-1 Fusion Peptides Conjugated to Polymer(s), Their Production and Use” (priority 2007, published 2010)
Ends that are not written are not given here.

Assays:
[1] = tested on: diabetic C57BL/KsJ@Rj-db (db/db) mice; experiment: Dose-efficacy study in diabetic mice; assay type: in vivo
Procedure: A sixth group was treated with saline only. 7 animals were treated per group. Blood glucose was determined from tail bleeds directly before, 1 hour and 4 hours after injection.
The results are shown in dose-response curves according to FIG. 12 ([…] (GLP-1), FIG. 12B (CM1), FIG. 12C (CM3) and FIG. 12D (CM3-ANA01)). For every test substance a graph was prepared with the percentage difference of the blood glucose in relation to the start value for the different concentrations. […] Both models are sigmoidal fit models suitable for dose response evaluation. For every peptide the plasma glucose ED50 values (single s.c. dose in μg/mouse) have been determined from the percentage decrease of blood glucose.
The fall in plasma glucose and the corresponding significance levels are given for the time period 1 hour (@1 h) and 4 hours (@4 h) after peptide injection. Differences have been observed in the long-term efficacy of the peptides.

[2] = tested on: C57BL/KsJ@Rj-db (db/db) mice; experiment: Long-term treatment of db/db mice; assay type: in vivo
Procedure: Peptides or vehicle will be given once daily (group A-D) between 2°°-3°° p m. subcutaneously in the skin fold of the back. The regimen was continued for 18 weeks. From week 12 to 18 treatment was done twice a day in 6 of 12 animals per group.
Various parameters of the mice were investigated, i.e. health status (1), body weight (2), food consumption (3), blood glucose (4), glucose tolerance test (5), insulin data (6), glycosylated hemoglobin (7), pathology (8), and restimulation of T cells (9). • Health status (1) was good in all groups, no side effects of the treatment have been seen. • Body weight (2) was lower in all treated groups after 18 weeks of treatment (FIG. 13). […] The mean values of 12 animals per group are plotted. […] The relative body weight increase of 12 animals per group after a treatment of 122 days is plotted. […] Non-fasted blood glucose level (1 hour after peptide injection) is shown in FIG. 15A, i.e. the effect of a treatment with saline (A), CM1 (B), CM3-ANA01 (C) or exendin (D) on the non-fasted blood glucose levels. Blood glucose was measured from a tail bleed 1 hour after s.c. injection of saline (A) or the peptides CM1 (B), CM3-ANA01 (C) or exendin (D) in a concentration of 24 nmol/kg. […] Blood glucose was measured from a tail bleed after a 12-hour overnight fast 18 hours after s.c. injection of the test substances. Fasted blood glucose level 18h after peptide injection is reduced in the CM1 and CM3-ANA01 group. • An i.p. glucose tolerance test (5) (IPGTT) was conducted after 8 weeks of treatment on mice of the groups A-D. The basal blood glucose value (0 min) of 12 hour fasted animals has been determined by tail bleed followed by an s.c. injection of the test substance and an i.p. injection of 20% glucose solution (1g glucose per kg). Blood glucose has been further on determined 15, 30, 45, 60, 90 and 120 minutes after glucose injection. […] The serum was analysed for insulin with the Insulin Mouse Ultrasensitive ELISA (Cat.# EIA-3440, DRG). […]

[3] = tested on: BALB/c mice; experiment: In vivo immunogenicity study; conditions: 5 repeated injections, 70 μg peptide/dose, i.v., over 22d
Procedure: (§1) The trial was done in BALB/c mice receiving 5 repeated injections (70 μg peptide/dose, i.v.) over 22d (n=5).
(§2) Spleens of the treated and control mice were explanted, T-cells isolated and stimulated with increasing amounts of antigene. Proliferative recall response is measured.

[4] = tested on: BALB/c mice; conditions: mouse, in vivo
Procedure: as §1, §2

[5] = tested on: type II diabetic mice (C57BL/Ks-Lepr db/db); experiment: In vivo bioactivity in type II diabetic mice; conditions: 5 μg peptide s.c. twice a day, day 2, 4, 7, 10
Procedure: 11-week-old type II diabetic mice (C57BL/Ks-Lepr^db/db, Harlan) were treated with 5 μg peptide by subcutaneous injection twice a day at 9 a.m. and 5 p.m. (n=5 per group). Blood glucose was measured before (day 0) and after treatment with GLP^CM peptides (Day 2, 4, 7, 10) at 10 a.m. after an overnight fastening period. Data were presented in relation to blood glucose levels measured at day 0.
Best results were obtained with recombinant SEQ ID NO:6 (CM1) and synthetic SEQ ID NO:8 (CM3). In FIG. 9 (y-axis) the relative effect of the treatment is shown. Blood glucose at day ═O was set to 1. Untreated animals undergo continuous increase in blood glucose level over time, whereas animals treated with inventive peptides display grosso modo a continuous decrease of the blood glucose level over time.

[6] = target: T1, DPPIV (Homo sapiens, UniProt P27487); experiment: In vitro plasma stability (kinetic test method), GLP-1 (active) ELISA; conditions: for remaining at 9 h, 1 μM: human, pH 7.8
Target sequence in this assay (P27487 whole entry): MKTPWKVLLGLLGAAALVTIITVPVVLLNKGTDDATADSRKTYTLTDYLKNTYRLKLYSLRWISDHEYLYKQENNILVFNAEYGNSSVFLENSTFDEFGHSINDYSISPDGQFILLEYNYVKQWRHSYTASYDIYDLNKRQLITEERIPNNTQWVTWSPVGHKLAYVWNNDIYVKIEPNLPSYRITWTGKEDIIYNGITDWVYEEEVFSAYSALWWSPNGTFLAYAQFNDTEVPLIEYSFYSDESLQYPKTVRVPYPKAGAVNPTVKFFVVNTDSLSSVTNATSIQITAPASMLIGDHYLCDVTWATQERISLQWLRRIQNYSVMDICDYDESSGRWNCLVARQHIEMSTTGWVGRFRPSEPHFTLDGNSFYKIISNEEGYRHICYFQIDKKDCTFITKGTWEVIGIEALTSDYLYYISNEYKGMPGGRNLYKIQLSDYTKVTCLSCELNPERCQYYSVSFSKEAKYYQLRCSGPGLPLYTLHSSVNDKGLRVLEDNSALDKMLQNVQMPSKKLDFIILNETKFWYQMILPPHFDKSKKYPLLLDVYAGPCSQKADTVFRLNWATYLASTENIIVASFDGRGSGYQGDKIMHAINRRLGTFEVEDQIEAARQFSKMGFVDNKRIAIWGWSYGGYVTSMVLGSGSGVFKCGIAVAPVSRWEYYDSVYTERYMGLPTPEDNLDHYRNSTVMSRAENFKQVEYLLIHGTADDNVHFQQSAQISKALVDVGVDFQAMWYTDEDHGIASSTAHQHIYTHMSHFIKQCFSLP
Description: Results are from triplicates in at least two independent experiments.

[7] = tested on: diabetic db/db mice; experiment: In vivo bioactivity of PEGylated peptide in diabetic db/db mice
[8] = target: T2, GLP-1 receptor (Homo sapiens, UniProt P43220); assay type: cell-based
T2 construct: expressed in transfected cells; host or cells: CHO cell line
Procedure: GLP-1 Bioassay cAMP Increase
The in vitro bioactivity was tested in a GLP-1 receptor transfected CHO cell line by determining the half maximum effective dose (ED50)

[9] = target: T1, DPPIV; experiment: In vitro human plasma stability of GLP-1 CM peptides; conditions: 20 ng/ml, 37° C., 3 hours
Target sequence in this assay (P27487 39-766 limits assumed): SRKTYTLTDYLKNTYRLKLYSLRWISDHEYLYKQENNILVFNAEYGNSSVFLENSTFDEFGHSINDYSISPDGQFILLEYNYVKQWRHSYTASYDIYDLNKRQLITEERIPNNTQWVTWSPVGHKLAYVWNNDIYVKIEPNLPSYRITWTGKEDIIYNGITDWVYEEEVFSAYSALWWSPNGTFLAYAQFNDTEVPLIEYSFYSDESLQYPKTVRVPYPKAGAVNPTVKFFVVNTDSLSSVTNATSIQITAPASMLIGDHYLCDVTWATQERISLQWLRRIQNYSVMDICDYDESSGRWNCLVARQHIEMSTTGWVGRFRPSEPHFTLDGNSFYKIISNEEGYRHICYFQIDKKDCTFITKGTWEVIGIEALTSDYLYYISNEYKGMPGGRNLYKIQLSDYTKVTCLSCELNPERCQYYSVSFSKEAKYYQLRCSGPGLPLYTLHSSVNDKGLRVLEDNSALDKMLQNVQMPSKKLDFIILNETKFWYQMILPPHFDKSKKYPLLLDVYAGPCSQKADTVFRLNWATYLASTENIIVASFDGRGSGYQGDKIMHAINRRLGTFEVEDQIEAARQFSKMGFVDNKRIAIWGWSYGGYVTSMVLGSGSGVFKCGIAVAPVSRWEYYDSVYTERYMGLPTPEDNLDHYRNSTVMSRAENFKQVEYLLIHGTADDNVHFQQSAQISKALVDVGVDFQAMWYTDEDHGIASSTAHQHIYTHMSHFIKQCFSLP
Description: Dipeptidylpeptidase activity of the plasma was inhibited by an DPP-IV inhibitor (#DPP4, Biotrend).

T2 sequence (P43220 24-463, species assumed): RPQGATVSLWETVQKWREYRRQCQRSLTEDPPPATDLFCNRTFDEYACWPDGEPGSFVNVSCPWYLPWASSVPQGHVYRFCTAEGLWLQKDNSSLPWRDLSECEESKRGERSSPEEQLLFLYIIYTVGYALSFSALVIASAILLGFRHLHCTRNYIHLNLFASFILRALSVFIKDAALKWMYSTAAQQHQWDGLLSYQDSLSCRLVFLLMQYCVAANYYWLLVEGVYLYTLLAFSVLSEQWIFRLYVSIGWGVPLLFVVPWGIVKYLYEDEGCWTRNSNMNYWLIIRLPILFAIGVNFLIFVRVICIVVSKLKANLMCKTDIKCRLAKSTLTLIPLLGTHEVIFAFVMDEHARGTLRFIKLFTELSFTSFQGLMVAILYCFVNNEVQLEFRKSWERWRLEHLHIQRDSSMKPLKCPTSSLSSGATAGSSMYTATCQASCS

## GLP-1(7-37)—IP2-RR-GLP1(7-37) [CM1]
[1]; single s.c. dose, 1 h measurements, percentage decrease of blood glucose
  ED50 (plasma glucose): 0.61 μg/mouse
[1]; single s.c. injection of 1.1-3.0 nmol peptide, versus control, 1 hour
  fall in plasma glucose @1 h: 50% ± 14%
[1]; single s.c. injection of 1.1-3.0 nmol peptide, versus control, 4 hours
  fall in plasma glucose @4 h: 0%
[2]; 24 nmol/kg s.c., 122 day treatment period, compared to the control
  food consumption: significantly lower
[2]; 12-hour overnight fast, 18h after peptide injection
  fasted blood glucose level: reduced
[2]; 1h after s.c. peptide injection, 24 nmol/kg
  non fasted blood glucose level compared to control: 55%
[3]
  toxicity: no toxicity
[4]
  clinically relevant immunogenicity: absence of any clinically relevant immunogenicity
[5]
  anti-hyperglycemia effect (blood glucose relative to day 0): anti-hyperglycemia effect

## PEG-CM3-ANA08: CM3-ANA08 covalently conjugated to unbranched 40 kDa mPEG maleimido propionamide via thiol of the C-terminal cysteine (HAEGTFTSDVSSYLEGQAAKEFIAWLVKGRGRRDFPEEVAIAEELGC)
[6]; 0 hours
  peptide detected in the GLP-1 active ELISA: 19%
[7]; mouse, in vivo
  signs of toxicity: No signs of toxicity
[7]; treated versus non-treated group
  blood glucose decrease: significant blood glucose decrease
[8]; GLP-1 receptor transfected CHO cell line
  ED50 relative to CM3 (lowered in vitro bioactivity): approximately 5 times

## HAEGTFTSDVSSYLEGQAAKEFIAWLVKGRGRRDFPEEVAIAEELG [CM3]
[9]
  stability in human plasma in vitro: significantly stabilized
[6]; 10% human plasma
  remaining at 9 h, 1 μM: 63%
[8]
  ED50 (half maximum effective dose), cAMP increase: 187 µM

## HAEGTFTSDVSSYLEGQAAKEFIAWLVKGRGRRDAAAAVAIAEELG [CM3-ANA03]
[6]; 10% human plasma, 37° C.
  in vitro plasma stability (comparison): strongly reduced stability compared to CM3

## HAEGTFTSDVSSYLEGQAAKEFIAWLVKGRGAADFPEEVAIAEELG [CM3-ANA01]
[6]; 1 μM peptide, 10% human plasma, 37° C., 9 h
  active GLP-1 as a % of the 0 h value after 9 h: 84%
[6]; 10% human plasma, 37° C.
  in vitro plasma stability (comparison): higher plasma stability than CM3
[6]; 10% human plasma
  remaining at 9 h, 1 μM: 84%
[8]
  ED50 (half maximum effective dose), cAMP increase: 159 µM
